Data as given in PubChem BioAssay (NCI).
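At the GI50, growth is halved. TGI: total growth inhibition.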

Legend:
Experiment in all cases: NCI tumour cell line growth inhibition, 384-well format
KM12 colon = system: KM12 colon
MCF7 breast = system: MCF7 breast
ACHN renal = system: ACHN renal
786-0 renal = system: 786-0 renal
HOP-62 NSCLC = system: HOP-62 NSCLC
SF-268 CNS = system: SF-268 CNS
SK-OV-3 ovarian = system: SK-OV-3 ovarian
UACC-62 melanoma = system: UACC-62 melanoma
PC-3 prostate = system: PC-3 prostate
LOX IMVI melanoma = system: LOX IMVI melanoma
SNB-19 CNS = system: SNB-19 CNS
HOP-92 NSCLC = system: HOP-92 NSCLC
HCC-2998 colon = system: HCC-2998 colon
MOLT-4 leukemia = system: MOLT-4 leukemia
OVCAR-3 ovarian = system: OVCAR-3 ovarian
SF-539 CNS = system: SF-539 CNS
COLO 205 colon = system: COLO 205 colon
M14 melanoma = system: M14 melanoma
TK-10 renal = system: TK-10 renal
MALME-3M melanoma = system: MALME-3M melanoma
EKVX NSCLC = system: EKVX NSCLC
HS 578T breast = system: HS 578T breast
UACC-257 melanoma = system: UACC-257 melanoma
NCI-H322M lung = system: NCI-H322M lung
HCT-15 colon = system: HCT-15 colon
SW-620 colon = system: SW-620 colon
SF-295 CNS = system: SF-295 CNS
BT-549 breast = system: BT-549 breast
U251 glioblastoma = system: U251 glioblastoma
NCI-H460 NSCLC = system: NCI-H460 NSCLC
HCT-116 colon = system: HCT-116 colon
NCI-H522 lung = system: NCI-H522 lung
K-562 leukemia = system: K-562 leukemia
CAKI-1 renal = system: CAKI-1 renal
DU-145 prostate = system: DU-145 prostate
A498 renal = system: A498 renal
SNB-75 CNS = system: SNB-75 CNS
OVCAR-8 ovarian = system: OVCAR-8 ovarian
RPMI-8226 leukemia = system: RPMI-8226 leukemia
SK-MEL-5 melanoma = system: SK-MEL-5 melanoma
A549 NSCLC = system: A549 NSCLC
OVCAR-4 ovarian = system: OVCAR-4 ovarian
RXF 393 renal = system: RXF 393 renal
NCI-H23 lung = system: NCI-H23 lung
SK-MEL-2 melanoma = system: SK-MEL-2 melanoma
HT29 colon = system: HT29 colon
NCI-H226 lung = system: NCI-H226 lung
MDA-MB-468 breast = system: MDA-MB-468 breast
HL-60(TB) leukemia = system: HL-60(TB) leukemia
SK-MEL-28 melanoma = system: SK-MEL-28 melanoma
NCI/ADR-RES ovarian = system: NCI/ADR-RES ovarian
SN12C renal = system: SN12C renal
MDA-MB-435 melanoma = system: MDA-MB-435 melanoma
CCRF-CEM leukemia = system: CCRF-CEM leukemia
IGROV1 ovarian = system: IGROV1 ovarian

## O=C1C=CC(Nc2ccccc2[N+](=O)[O-])C1Nc1ccccc1[N+](=O)[O-] (stereo not given)
KM12 colon
  GI50: 2120 nM
  TGI: 5.95 µM
MCF7 breast
  GI50: 1640 nM
  TGI: 3.04 µM
ACHN renal
  GI50: 1620 nM
  TGI: 3.01 µM
786-0 renal
  GI50: 1780 nM
  TGI: 3.32 µM
HOP-62 NSCLC
  GI50: 2300 nM
  TGI: 3.94 µM
SF-268 CNS
  GI50: 2340 nM
  TGI: 4.42 µM
SK-OV-3 ovarian
  GI50: 4.5 µM
  TGI: 15.9 µM
UACC-62 melanoma
  GI50: 1680 nM
  TGI: 3.1 µM
PC-3 prostate
  GI50: 1580 nM
  TGI: 2960 nM
LOX IMVI melanoma
  GI50: 1840 nM
  TGI: 3.47 µM
SNB-19 CNS
  GI50: 5.2 µM
  TGI: 15.6 µM
HOP-92 NSCLC
  GI50: 2000 nM
  TGI: 3.57 µM
HCC-2998 colon
  GI50: 2050 nM
  TGI: 4.78 µM
MOLT-4 leukemia
  GI50: 344 nM
  TGI: 1090 nM
OVCAR-3 ovarian
  GI50: 1520 nM
  TGI: 2870 nM
SF-539 CNS
  GI50: 1590 nM
  TGI: 2950 nM
COLO 205 colon
  GI50: 1910 nM
  TGI: 3.37 µM
M14 melanoma
  GI50: 1710 nM
  TGI: 3.16 µM
TK-10 renal
  GI50: 1650 nM
  TGI: 3.03 µM
MALME-3M melanoma
  GI50: 2270 nM
  TGI: 3.74 µM
EKVX NSCLC
  GI50: 3.02 µM
  TGI: 8.07 µM
HS 578T breast
  GI50: 1840 nM
  TGI: 3.42 µM
UACC-257 melanoma
  GI50: 1830 nM
  TGI: 3.23 µM
NCI-H322M lung
  GI50: 13.8 µM
  TGI: 26.9 µM
HCT-15 colon
  GI50: 1560 nM
  TGI: 2940 nM
SW-620 colon
  GI50: 1730 nM
  TGI: 3.15 µM
SF-295 CNS
  GI50: 19.5 µM
  TGI: 34.6 µM
BT-549 breast
  GI50: 1580 nM
  TGI: 3.08 µM
U251 glioblastoma
  GI50: 2110 nM
  TGI: 3.78 µM
NCI-H460 NSCLC
  GI50: > 100 µM
  TGI: > 100 µM
HCT-116 colon
  GI50: 1320 nM
  TGI: 2640 nM
NCI-H522 lung
  GI50: 1390 nM
  TGI: 2690 nM
K-562 leukemia
  GI50: 4.85 µM
  TGI: 15 µM
CAKI-1 renal
  GI50: 1290 nM
  TGI: 2580 nM
DU-145 prostate
  GI50: 4.87 µM
  TGI: 15.7 µM
A498 renal
  GI50: 2010 nM
  TGI: 3.8 µM
SNB-75 CNS
  GI50: 4.16 µM
  TGI: 10.1 µM
OVCAR-8 ovarian
  GI50: 1660 nM
  TGI: 3.06 µM
RPMI-8226 leukemia
  GI50: 222 nM
  TGI: 410 nM
SK-MEL-5 melanoma
  GI50: 1750 nM
  TGI: 3.2 µM
A549 NSCLC
  GI50: 3.54 µM
  TGI: 11.8 µM
OVCAR-4 ovarian
  GI50: 1780 nM
  TGI: 3.34 µM
RXF 393 renal
  GI50: 1710 nM
  TGI: 3.11 µM
NCI-H23 lung
  GI50: 1980 nM
  TGI: 3.62 µM
SK-MEL-2 melanoma
  GI50: 445 nM
  TGI: 1290 nM
HT29 colon
  GI50: 1620 nM
  TGI: 3.15 µM
NCI-H226 lung
  GI50: 1530 nM
  TGI: 2930 nM
MDA-MB-468 breast
  GI50: 510 nM
  TGI: 967 nM
HL-60(TB) leukemia
  GI50: 148 nM
  TGI: 281 nM
SK-MEL-28 melanoma
  GI50: 1950 nM
  TGI: 3.41 µM
NCI/ADR-RES ovarian
  GI50: 2780 nM
  TGI: 5.64 µM
SN12C renal
  GI50: 1760 nM
  TGI: 3.15 µM
MDA-MB-435 melanoma
  GI50: 2400 nM
  TGI: 5.28 µM
CCRF-CEM leukemia
  GI50: 386 nM
  TGI: 1350 nM
IGROV1 ovarian
  GI50: 2020 nM
  TGI: 4.16 µM
